Test results reported in PMC5926067 (Japanese Journal of Cancer Research : Gann, 1999).

What was measured:
Format in all cases: biochemical
[1] = biological target: T1, interstitial collagenase (Homo sapiens, UniProt P03956); assay: fluorescence-labeled collagen degradation assay, partially purified enzyme
T1 sequence (P03956 100-469): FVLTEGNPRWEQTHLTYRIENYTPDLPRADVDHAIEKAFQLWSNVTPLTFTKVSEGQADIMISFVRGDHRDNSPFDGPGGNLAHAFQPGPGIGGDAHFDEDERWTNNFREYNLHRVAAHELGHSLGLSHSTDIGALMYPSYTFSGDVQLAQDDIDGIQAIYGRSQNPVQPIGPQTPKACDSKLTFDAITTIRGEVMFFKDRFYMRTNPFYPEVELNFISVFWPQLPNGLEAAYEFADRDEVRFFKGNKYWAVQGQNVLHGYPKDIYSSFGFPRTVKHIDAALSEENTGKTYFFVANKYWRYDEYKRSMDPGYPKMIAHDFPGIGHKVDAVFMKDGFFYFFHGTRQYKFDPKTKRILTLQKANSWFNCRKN

[2] = biological target: gelatinase B (MMP-9) (Homo sapiens, UniProt P14780); assay: fluorescence-labeled gelatin degradation assay, partially purified enzyme
gelatinase B (MMP-9), sequence (P14780 107-707): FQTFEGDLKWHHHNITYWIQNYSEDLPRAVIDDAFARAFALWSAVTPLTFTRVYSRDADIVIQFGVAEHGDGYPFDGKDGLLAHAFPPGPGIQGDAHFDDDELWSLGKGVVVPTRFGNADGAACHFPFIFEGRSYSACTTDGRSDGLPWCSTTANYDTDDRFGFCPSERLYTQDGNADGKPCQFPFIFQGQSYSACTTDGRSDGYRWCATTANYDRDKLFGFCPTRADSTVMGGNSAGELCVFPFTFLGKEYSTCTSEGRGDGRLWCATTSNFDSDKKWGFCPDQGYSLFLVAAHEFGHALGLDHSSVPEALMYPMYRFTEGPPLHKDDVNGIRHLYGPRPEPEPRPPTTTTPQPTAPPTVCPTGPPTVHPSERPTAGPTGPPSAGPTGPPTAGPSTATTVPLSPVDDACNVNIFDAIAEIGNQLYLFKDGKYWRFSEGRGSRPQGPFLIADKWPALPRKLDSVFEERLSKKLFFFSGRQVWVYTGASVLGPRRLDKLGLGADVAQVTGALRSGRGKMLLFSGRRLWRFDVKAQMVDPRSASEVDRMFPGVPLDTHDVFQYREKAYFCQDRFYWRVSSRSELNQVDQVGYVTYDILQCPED

[3] = biological target: T2, gelatinase A (MMP-2) (Homo sapiens, UniProt P08253); assay: as above
T2 sequence (P08253 110-660): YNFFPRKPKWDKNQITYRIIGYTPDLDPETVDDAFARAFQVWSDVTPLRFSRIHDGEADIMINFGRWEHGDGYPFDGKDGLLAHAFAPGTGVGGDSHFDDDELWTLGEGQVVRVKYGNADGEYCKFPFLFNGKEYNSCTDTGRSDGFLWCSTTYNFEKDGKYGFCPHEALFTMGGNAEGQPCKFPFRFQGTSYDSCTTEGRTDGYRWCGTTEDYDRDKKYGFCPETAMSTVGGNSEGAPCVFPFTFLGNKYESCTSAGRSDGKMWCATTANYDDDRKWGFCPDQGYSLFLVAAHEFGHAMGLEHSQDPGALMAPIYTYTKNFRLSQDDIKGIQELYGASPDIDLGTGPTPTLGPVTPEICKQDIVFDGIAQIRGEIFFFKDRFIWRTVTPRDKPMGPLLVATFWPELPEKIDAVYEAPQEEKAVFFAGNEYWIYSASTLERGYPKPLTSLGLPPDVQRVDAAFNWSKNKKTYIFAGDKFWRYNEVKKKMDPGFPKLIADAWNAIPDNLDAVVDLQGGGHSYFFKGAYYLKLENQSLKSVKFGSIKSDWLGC

[4] = biological target: stromelysin (Mus musculus, UniProt P28862); assay: fluorescence-labeled casein degradation assay, partially purified enzyme
stromelysin, sequence (P28862 100-477): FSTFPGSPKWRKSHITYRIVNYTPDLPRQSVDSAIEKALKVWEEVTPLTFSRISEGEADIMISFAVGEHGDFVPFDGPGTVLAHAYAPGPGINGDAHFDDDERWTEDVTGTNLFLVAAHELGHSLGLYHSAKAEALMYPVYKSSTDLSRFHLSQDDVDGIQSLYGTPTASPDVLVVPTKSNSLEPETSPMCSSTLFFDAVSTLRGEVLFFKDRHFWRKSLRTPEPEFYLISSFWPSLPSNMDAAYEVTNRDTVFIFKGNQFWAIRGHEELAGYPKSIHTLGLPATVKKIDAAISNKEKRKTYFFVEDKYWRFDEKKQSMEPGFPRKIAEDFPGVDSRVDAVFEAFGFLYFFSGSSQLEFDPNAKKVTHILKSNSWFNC

IC50 [1]: 700 nM
IC50 [2]: 500 nM
IC50 [3]: 5000 nM
IC50 [4]: 2000 nM
Compound: CON1C(=O)[C@@H](NC(=O)[C@@H](CC(=O)NO)CC(C)C)Cc2ccccc21 [OPB-3206, 3S-[4-(N-hydroxyamino)-2R-isobutylsuccinyl]amino-1-methoxy-3,4-dihydrocarbostyril]
